Read-outs that look alike come from different tables or passages of the source.
What was measured:
[1] = test system: S. typhimurium TA1535/pSK1002
Experimental: Metabolic activation was obtained with S9 fraction prepared from livers of male Sprague Dawley rats. […] After isolation, the evaluation of cytochrome p450 level was performed and samples were stored at −80 ^∘ C. The S9 mix was prepared according to the method described by Maron and Ames.
(§1) IR was calculated on the basis of spectrophotometric measurement.

[2] = test system: S. typhimurium TA1535/pSK1002; settings: mixture with 4NQO 0.05 μg/mL
Experimental: Salmonella typhimurium strain TA1535/pSK1002 was purchased from Deutsche Sammlung von Mikroorganismen und Zellkulturen GmbH (DSMZ, Germany).
The strain used in the test carries the fusion of umuC and lacZ genes, which are placed at the plasmid pSK1002. […] In the present study, the umu-test was carried out in the micro-plate variant according to the ISOguideline [61]. β -galactosidase activity of the tested compound was presented as induction ratio (IR). IR was calculated as the β -galactosidase activity of the tested compound relative to the negative control.
IR was calculated on the basis of spectrophotometric measurement. The absorption at 420 nm indicated the intensity of the enzymatic reaction, and the optical density at 600 nm indicated the bacteria growth. The measurements were performed with an Asys UVM340 Hightech microplate spectrophotometer.
At the same time, the genotoxicity of PhAs (10 μ g/mL) and EXTs (0.25–2 mg/mL) was investigated.

[3] = test system: S. typhimurium TA98 strain; settings: against 4NQO; cited from earlier work
[4] = test system: S. typhimurium TA1535/pSK1002; settings: −S9, highest tested concentration 10 μg/mL
Experimental: as §1

[5] = test system: S. typhimurium TA1535/pSK1002; remark: listed apart in the source
Experimental: as §1
The anti-photogenotoxicity was determined using chlorpromazine (CPZ) as an agent inducing genotoxic response under UVA irradiation by forming an unstable promazyl radical which is able to bind to DNA [62]. The protocol developed by Skrzypczak et. al was applied. […] The rate of anti-photogenotoxicity was calculated using the same formula as the rate of antigenotoxicity.

[6] = test system: S. typhimurium TA1535/pSK1002; type: cell-based, Salmonella typhimurium
Experimental: as §1

MMC genotoxicity = settings: CGA 5 and 50 μM, MMC 0.9 μM (0.3 μg/mL); cited from earlier work
[7] = +S9, highest tested concentration 10 μg/mL
[8] = mixture with 2AA 1 μg/mL, PhA concentration 0.3125 (mg/mL)
[9] = mixture with 2AA 1 μg/mL, PhA concentration 0.625 (mg/mL)
[10] = mixture with 2AA 1 μg/mL, PhA concentration 1.25 (mg/mL)
[11] = mixture with 2AA 1 μg/mL, PhA concentration 2.5 (mg/mL)
[12] = mixture with 2AA 1 μg/mL, PhA concentration 5 (mg/mL)
[13] = mixture with 2AA 1 μg/mL, PhA concentration 10 (mg/mL)
[14] = mixture with 2AA 10 μg/mL, PhA concentration 0.3125 (mg/mL)
[15] = mixture with 2AA 10 μg/mL, PhA concentration 0.625 (mg/mL)
[16] = mixture with 2AA 10 μg/mL, PhA concentration 1.25 (mg/mL)
[17] = mixture with 2AA 10 μg/mL, PhA concentration 2.5 (mg/mL)
[18] = mixture with 2AA 10 μg/mL, PhA concentration 5 (mg/mL)
[19] = mixture with 2AA 10 μg/mL, PhA concentration 10 (mg/mL)
[20] = mixture with CPZ 5 μg/mL, UVA, PhA 5 μg/mL
[21] = mixture with CPZ 5 μg/mL, UVA, PhA 10 μg/mL
[22] = mixture with CPZ 5 μg/mL, UVA, PhA […]
[23] = mixture with CPZ 10 μg/mL, UVA, PhA 5 μg/mL
[24] = mixture with CPZ 10 μg/mL, UVA, PhA 10 μg/mL
[25] = mixture with CPZ 10 μg/mL, UVA, PhA […]
[26] = mixture with MMC 0.004 μg/mL, PhA 5 μg/mL
[27] = mixture with MMC 0.004 μg/mL, PhA 10 μg/mL
[28] = mixture with MMC 0.004 μg/mL, PhA […]
[29] = mixture with MMC 0.02 μg/mL, PhA 5 μg/mL
[30] = mixture with MMC 0.02 μg/mL, PhA 10 μg/mL
[31] = mixture with MMC 0.02 μg/mL, PhA […]

## Nc1ccc2cc3ccccc3cc2c1 [2AA, 2-aminoanthracene]
[1]; control: 2AA 1 μg/mL alone, +S9, experiments with PhAs
  IR (mean ± SD): 3.37 ± 0.72
[1]; control: 2AA 1 μg/mL alone, +S9, experiments with extracts
  IR (mean ± SD): 4.5 ± 0.99
[1]; control: 2AA 10 μg/mL alone, +S9, experiments with PhAs
  IR (mean ± SD): 4 ± 1.3
[1]; control: 2AA 10 μg/mL alone, +S9, experiments with extracts
  IR (mean ± SD): 6 ± 1.5

## O=C(O)/C=C/c1ccc(O)c(O)c1 [CA, caffeic acid]
[2]; PhA 5 μg/mL
  IR (mean ± SD): 3.7 ± 0.69
[2]; PhA 10 μg/mL
  IR (mean ± SD): 3.9 ± 0.99
[3]
  reduction of the number of revertants: 28%
[4]
  IR (mean ± SD): 1.1 ± 0.16
[1]; 2AA 10 μg/mL, PhA concentration 1.25 (mg/mL)
  Antigenotox.: 24%
[1]; [7]
  IR (mean ± SD): 1.0 ± 0.11
[1]; [8]
  IR (mean ± SD): 3 ± 1.0
[1]; [9]
  IR (mean ± SD): 3.1 ± 0.55
[1]; [10]
  IR (mean ± SD): 3.1 ± 0.29
[1]; [11]
  IR (mean ± SD): 3.1 ± 0.53
[1]; [12]
  IR (mean ± SD): 3.7 ± 0.77
[1]; [13]
  IR (mean ± SD): 3.8 ± 0.85
[1]; [14]
  IR (mean ± SD): 2.8 ± 0.60
[1]; [15]
  IR (mean ± SD): 3.4 ± 0.90
[1]; [16]
  IR (mean ± SD): 2.7 ± 0.34
[1]; [17]
  IR (mean ± SD): 3.2 ± 0.51
[1]; [18]
  IR (mean ± SD): 3.6 ± 0.89
[1]; [19]
  IR (mean ± SD): 3.7 ± 0.80
[5]; CPZ 5 μg/mL, UVA, PhA […]
  Anti-Photogenotox.: 11%
[5]; CPZ 10 μg/mL, UVA, PhA […]
  Anti-Photogenotox.: 10%
[5]; [20]
  IR (mean ± SD): 3.3 ± 0.33
[5]; [21]
  IR (mean ± SD): 3.4 ± 0.25
[5]; [22]
  IR (mean ± SD): 3.2 ± 0.40
[5]; [23]
  IR (mean ± SD): 5 ± 1.2
[5]; [24]
  IR (mean ± SD): 4.9 ± 0.90
[5]; [25]
  IR (mean ± SD): 4.5 ± 0.49
[6]; [26]
  IR (mean ± SD): 2.7 ± 0.81
[6]; [27]
  IR (mean ± SD): 2.3 ± 0.67
[6]; [28]
  IR (mean ± SD): 2.5 ± 0.75
[6]; [29]
  IR (mean ± SD): 5 ± 1.1
[6]; [30]
  IR (mean ± SD): 5 ± 1.2
[6]; [31]
  IR (mean ± SD): 5 ± 1.2

## O=C(/C=C/c1ccc(O)c(O)c1)O[C@@H]1C[C@](O)(C(=O)O)C[C@@H](O)[C@H]1O [CGA, Chlorogenic acid]
MMC genotoxicity
  inhibition of MMC genotoxicity: 65%

## CN(C)CCCN1c2ccccc2Sc2ccc(Cl)cc21 [CPZ, chlorpromazine]
[5]; control: CPZ 5 μg/mL alone, UVA irradiation
  IR (mean ± SD): 3.6 ± 0.40
[5]; control: CPZ 10 μg/mL alone, UVA irradiation
  IR (mean ± SD): 5.1 ± 0.78

## COc1cc(/C=C/C(=O)O)ccc1O [FA, ferulic acid]
[2]; PhA 5 μg/mL
  IR (mean ± SD): 3.6 ± 0.67
[2]; PhA 10 μg/mL
  IR (mean ± SD): 4.0 ± 0.70
[4]
  IR (mean ± SD): 1.2 ± 0.10
[1]; 2AA 1 μg/mL, PhA concentration 0.625 (mg/mL)
  Antigenotox.: 19%
[1]; [7]
  IR (mean ± SD): 1.1 ± 0.14
[1]; [8]
  IR (mean ± SD): 3.1 ± 0.73
[1]; [9]
  IR (mean ± SD): 2.7 ± 0.37
[1]; [10]
  IR (mean ± SD): 2.9 ± 0.66
[1]; [11]
  IR (mean ± SD): 2.8 ± 0.58
[1]; [12]
  IR (mean ± SD): 3.4 ± 0.96
[1]; [13]
  IR (mean ± SD): 4 ± 1.0
[1]; [14]
  IR (mean ± SD): 2.9 ± 0.43
[1]; [15]
  IR (mean ± SD): 3.1 ± 0.75
[1]; [16]
  IR (mean ± SD): 3.3 ± 0.63
[1]; [17]
  IR (mean ± SD): 3.2 ± 0.45
[1]; [18]
  IR (mean ± SD): 4 ± 1.3
[1]; [19]
  IR (mean ± SD): 5 ± 1.4
[5]; CPZ 5 μg/mL, UVA, PhA 5 μg/mL
  Anti-Photogenotox.: 15%
[5]; CPZ 5 μg/mL, UVA, PhA 10 μg/mL
  Anti-Photogenotox.: 11%
[5]; CPZ 5 μg/mL, UVA, PhA […]
  Anti-Photogenotox.: 20%
[5]; CPZ 10 μg/mL, UVA, PhA 10 μg/mL
  Anti-Photogenotox.: 15%
[5]; CPZ 10 μg/mL, UVA, PhA […]
  Anti-Photogenotox.: 14%
[5]; [20]
  IR (mean ± SD): 3.0 ± 0.37
[5]; [21]
  IR (mean ± SD): 3.2 ± 0.20
[5]; [22]
  IR (mean ± SD): 3.0 ± 0.41
[5]; [23]
  IR (mean ± SD): 4.5 ± 0.73
[5]; [24]
  IR (mean ± SD): 4.3 ± 0.46
[5]; [25]
  IR (mean ± SD): 4 ± 1.1
[6]; [26]
  IR (mean ± SD): 2.5 ± 0.62
[6]; [27]
  IR (mean ± SD): 2.3 ± 0.51
[6]; [28]
  IR (mean ± SD): 2.6 ± 0.93
[6]; [29]
  IR (mean ± SD): 5 ± 1.2
[6]; [30]
  IR (mean ± SD): 5 ± 1.2
[6]; [31]
  IR (mean ± SD): 5 ± 1.2

— paper PMC7179227, “Antigenotoxic, Anti-photogenotoxic, and Antioxidant Properties of Polyscias filicifolia Shoots Cultivated In Vitro” (Molecules, 2020)
